Reference: article PMC5504085 (Journal of medicinal chemistry, 2017)

Assays:
RSV = conditions: orally available; phase II clinical trials; cited from earlier work
[1] = tested on: recRSV-A2-L19FD489E-fireSMASh; format: cell-based, respiratory syncytial virus; conditions: for antiviral (anti-RSV) activity in words: SAR discussion
[2] = Metabolic stability in mouse liver S9 fractions; format: in vitro ADME
[3] = Metabolic stability in mouse liver microsomes; format: in vitro ADME; conditions: without cofactors, 2 hours

| Molecule | antiviral (anti-RSV) activity in words [1] | also measured |
| --- | --- | --- |
| CC(C)C(=O)OC[C@@]1(CCl)O[C@@H](n2ccc(N)nc2=O)[C@H](F)[C@@H]1OC(=O)C(C)C [ALS-8176, 4'-chloromethyl-2'-deoxy-3',5'-di-o-isobutyryl-2'-fluorocytidine] | – | effect on viral load and disease symptoms (RSV): decreased viral load and disease symptoms |
| Cc1c(C(=O)N2CCCn3nc(C(=O)Nc4ccccc4)cc3C2)oc2ccccc12 [Compound 1i, 5-(3-Methylbenzofuran-2-carbonyl)-N-phenyl-5,6,7,8-tetrahydro-4H-pyrazolo[1,5-a][1,4]diazepine-2-carboxamide] | complete loss of potency | – |
| Cc1ccsc1C(=O)N1CCCn2nc(C(=O)Nc3ccccc3)cc2C1 [Compound 1c, 5-(3-Methylthiophene-2-carbonyl)-N-phenyl-5,6,7,8-tetrahydro-4H-pyrazolo[1,5-a][1,4]diazepine-2-carboxamide] | complete loss of potency | – |
| Cc1coc(C(=O)N2CCCn3nc(C(=O)Nc4ccccc4)cc3C2)c1 [Compound 1o, 5-(4-Methylfuran-2-carbonyl)-N-phenyl-5,6,7,8-tetrahydro-4H-pyrazolo[1,5-a][1,4]diazepine-2-carboxamide] | loss of activity | – |
| Cc1ccoc1C(=O)N1CCCn2nc(C(=O)Nc3ccc(F)cc3)cc2C1 [Compound 8i, N-(4-fluorophenyl)-5-(3-methylfuran-2-carbonyl)-5,6,7,8-tetrahydro-4H-pyrazolo[1,5-a][1,4]diazepine-2-carboxamide] | nanomolar potency | – |
| Cc1cc(C(=O)N2CCCn3nc(C(=O)Nc4ccccc4)cc3C2)oc1C [Compound 1n, 5-(4,5-Dimethylfuran-2-carbonyl)-N-phenyl-5,6,7,8-tetrahydro-4H-pyrazolo[1,5-a][1,4]diazepine-2-carboxamide] | lacked antiviral activity | – |
| Cc1ccn(C)c1C(=O)N1CCCn2nc(C(=O)Nc3ccccc3)cc2C1 [Compound 1e, 5-(1,3-Dimethyl-1H-pyrrole-2-carbonyl)-N-phenyl-5,6,7,8-tetrahydro-4H-pyrazolo[1,5-a][1,4]diazepine-2-carboxamide] | complete loss of potency | – |
| COc1ccc(NC(=O)c2cc3n(n2)CCCN(C(=O)c2occc2C)C3)cc1 [Compound 8l, N-(4-methoxyphenyl)-5-(3-methylfuran-2-carbonyl)-5,6,7,8-tetrahydro-4H-pyrazolo[1,5-a][1,4]diazepine-2-carboxamide] | nanomolar potency | – |
| Cc1ccoc1C(=O)N1CCCn2nc(CNc3ccccc3)cc2C1 [Compound 8q, (3-Methylfuran-2-yl)(2-((phenylamino)methyl)-7,8-dihydro-4H-pyrazolo[1,5-a][1,4]diazepin-5(6H)-yl)methanone] | retained sufficient activity | – |
| O=C(Nc1ccccc1)c1cc2n(n1)CCCN(S(=O)(=O)c1ccco1)C2 [Compound 1u, 5-(Furan-2-ylsulfonyl)-N-phenyl-5,6,7,8-tetrahydro-4H-pyrazolo[1,5-a][1,4]diazepine-2-carboxamide] | complete loss of bioactivity | – |
| Cc1ccoc1C(=O)N1CCCn2nc(C(=O)Nc3ccc(F)cc3Cl)cc2C1 [Compound 8n, N-(2-chloro-4-fluorophenyl)-5-(3-methylfuran-2-carbonyl)-5,6,7,8-tetrahydro-4H-pyrazolo[1,5-a][1,4]diazepine-2-carboxamide] | nanomolar potency | improvement in antiviral potency compared to hit compound 1a [1]: approximately 4 fold |
| 5-(4-Methylisoxazole-5-carbonyl)-N-phenyl-5,6,7,8-tetrahydro-4H-pyrazolo[1,5-a][1,4]diazepine-2-carboxamide [Compound 1q] | complete loss of potency | – |
| Cc1cc[nH]c1C(=O)N1CCCn2nc(C(=O)Nc3ccccc3)cc2C1 [Compound 1d, 5-(3-Methyl-1H-pyrrole-2-carbonyl)-N-phenyl-5,6,7,8-tetrahydro-4H-pyrazolo[1,5-a][1,4]diazepine-2-carboxamide] | complete loss of potency | – |
| Cc1ccoc1C(=O)N1CCCn2nc(C(=O)Nc3ccccc3F)cc2C1 [Compound 8g, N-(2-fluorophenyl)-5-(3-methylfuran-2-carbonyl)-5,6,7,8-tetrahydro-4H-pyrazolo[1,5-a][1,4]diazepine-2-carboxamide] | – | improvement in antiviral potency compared to hit compound 1a [1]: approximately 4 fold; stability with mouse S9 fractions ([2]; in the absence of cofactors): hydrolyzed rapidly |
| Cc1ccoc1C(=O)N1CCCn2nc(NS(=O)(=O)c3ccccc3)cc2C1 [Compound 8t, N-(5-(3-methylfuran-2-carbonyl)-5,6,7,8-tetrahydro-4H-pyrazolo[1,5-a][1,4]diazepin-2-yl)benzenesulfonamide] | loss of activity | – |
| 5-(4-Methyloxazole-5-carbonyl)-N-phenyl-5,6,7,8-tetrahydro-4H-pyrazolo[1,5-a][1,4]diazepine-2-carboxamide [Compound 1r] | complete loss of potency | – |
| Cc1ccoc1C(=O)N1CCCn2nc(C(=O)Cc3ccccc3)cc2C1 [Compound 8p, 1-(5-(3-Methylfuran-2-carbonyl)-5,6,7,8-tetrahydro-4H-pyrazolo[1,5-a][1,4]diazepin-2-yl)-2-phenylethanone] | retained sufficient activity | improvement in half-life compared to 8g ([2]; mouse S9 subcellular fractions): 2 fold; stability of parent in mouse liver microsomes [3]: parent remained intact |
| Cc1ccc(C(=O)N2CCCn3nc(C(=O)Nc4ccccc4)cc3C2)o1 [Compound 1p, 5-(5-Methylfuran-2-carbonyl)-N-phenyl-5,6,7,8-tetrahydro-4H-pyrazolo[1,5-a][1,4]diazepine-2-carboxamide] | loss of activity | – |
| Cc1ccoc1C(=O)N1CCCn2nc(S(=O)(=O)Nc3ccccc3)cc2C1 [Compound 8r, 5-(3-Methylfuran-2-carbonyl)-N-phenyl-5,6,7,8-tetrahydro-4H-pyrazolo[1,5-a][1,4]diazepine-2-sulfonamide] | loss of activity | – |
| O=C(Nc1ccccc1)c1cc2n(n1)CCCN(C(=O)c1ccncn1)C2 [Compound 1s, N-phenyl-5-(pyrimidine-4-carbonyl)-5,6,7,8-tetrahydro-4H-pyrazolo[1,5-a][1,4]diazepine-2-carboxamide] | complete loss of potency | – |
| Cc1ccoc1CN1CCCn2nc(C(=O)Nc3ccccc3)cc2C1 [Compound 1t, 5-((3-Methylfuran-2-yl)methyl)-N-phenyl-5,6,7,8-tetrahydro-4H-pyrazolo[1,5-a][1,4]diazepine-2-carboxamide] | complete loss of bioactivity | – |
| O=C(Nc1ccccc1)c1cc2n(n1)CCCN(C(=O)c1occc1C(F)(F)F)C2 [Compound 1j, N-phenyl-5-(3-(trifluoromethyl)furan-2-carbonyl)-5,6,7,8-tetrahydro-4H-pyrazolo[1,5-a][1,4]diazepine-2-carboxamide] | negative impacts on the potency | – |
| CCc1ccoc1C(=O)N1CCCn2nc(C(=O)Nc3ccccc3)cc2C1 [Compound 1k, 5-(3-Ethylfuran-2-carbonyl)-N-phenyl-5,6,7,8-tetrahydro-4H-pyrazolo[1,5-a][1,4]diazepine-2-carboxamide] | negative impacts on the potency | – |
| O=C(Nc1ccccc1)c1cc2n(n1)CCCN(C(=O)c1occc1-c1ccccc1)C2 [Compound 1h, N-phenyl-5-(3-phenylfuran-2-carbonyl)-5,6,7,8-tetrahydro-4H-pyrazolo[1,5-a][1,4]diazepine-2-carboxamide] | lacked appreciable inhibitory activity | – |
| Cc1ccoc1C(=O)N1CCCn2nc(C(=O)N(C)c3ccccc3)cc2C1 [Compound 8a, N-methyl-5-(3-methylfuran-2-carbonyl)-N-phenyl-5,6,7,8-tetrahydro-4H-pyrazolo[1,5-a][1,4]diazepine-2-carboxamide] | loss of activity | – |
| Cc1ccoc1C(=O)N1CCCn2nc(NC(=O)c3ccccc3)cc2C1 [Compound 8s, N-(5-(3-methylfuran-2-carbonyl)-5,6,7,8-tetrahydro-4H-pyrazolo[1,5-a][1,4]diazepin-2-yl)benzamide] | loss of activity | – |
| Cc1ccoc1C(=O)N1CCCn2nc(C(=O)Nc3ccc(F)cc3F)cc2C1 [Compound 8c, N-(2,4-difluorophenyl)-5-(3-methylfuran-2-carbonyl)-5,6,7,8-tetrahydro-4H-pyrazolo[1,5-a][1,4]diazepine-2-carboxamide] | – | improvement in antiviral potency compared to hit compound 1a [1]: approximately 4 fold |
